Results on five molecules are retold here after patent US6077525A, “Use of conjugated linoleic acids” (The George Washington University, priority 1998, dated 2000).

Each structure is given as a SMILES string. Read-outs that look alike come from different tables or passages of the source. Bounds are passed on as bounds.

The subject of assay [1] is human platelet thromboxane production (cyclooxygenase pathway). The experiment in a line: Human platelet thromboxane (TXB2) formation from [14C]-arachidonic acid, TLC. The assay is classed as cell-based. The following applies: for TXB2 formation (FIG. 2): CLA mix 3 and 10 μM, 9,11-18:2 30 and 60 μM, 10,12-18:2 3 and 10 μM, with ionophore A23187; for inhibitory effectiveness on platelet TXB2 formation, CLA mix and pure isomers compared: CLA mix vs pure 9,11- and 10,12-18:2; for IC50: Platelet, read-out: Inhibitory Potency (I50); for potency as thromboxane inhibitor relative to non-hydroxylated parent: 13-HODE vs 9,11-18:2. The procedure:
(§1) Human platelets were isolated from donors according to previously established procedures (13) and resuspended in Krebs-Henseleit buffer (pH 7.4) at a concentration of 3×10^8 platelets/ml. The platelets (0.5 ml) were placed in a 37° C. water bath for several minutes and then treated with either vehicle (ethanol) or various concentrations of the fatty acid to be tested for 2 min. Next, 10 μM (final concentration) [^14 C]-arachidonic acid was added. In some experiments, 20 μM calcium ionophore A23187 was added about 5 sec. prior to the addition of the arachidonic acid substrate. Ten minutes after the addition of arachidonic acid, the reaction was terminated with 10% formic acid and the products extracted with chloroform-methanol. Product separation and analysis by thin layer chromatography (TLC) was carried out as previously described using unlabeled arachidonic acid, 15-HETE and thromboxane B2 as standards (11). The various radioactive product and unreacted substrate bands were visualized by autoradiography and quantitated either by scraping the bands from the TLC plate and counting the samples in a liquid scintillation counter or by determining the relative band intensities using a Personal Densitometer SI (Molecular Dynamics, Sunnyvale, Calif.) with ImageQuaNT v4.2 software).
To obtain the results shown in FIG. 2, the human platelets were pretreated with the various concentrations of CLA isomers followed by the addition of calcium ionophore A23187 and [^14 C]-arachidonic acid. Products were isolated, separated by thin layer chromatography as described above. […] The identities of the bands in decreasing order of Rf are as follows: AA-unreacted arachidonic acid, 12-HETE-12-hydroxyeicosatetraenoic acid (a platelet 12-lipoxygenase metabolite), HHT-12-hydroxyheptadecatrienoic acid, TXB2 -thromboxane B2, the latter two products are cyclooxygenase metabolites, origin-sample application point.
The data shown were obtained by determining the effects of various concentrations of CLA isomers on platelet thromboxane B2 production. […] [^14 C]-thromboxane B2 production by fatty acid-treated platelets relative to vehicle-treated platelets was determined and expressed as % control. Symbols used for various fatty acids: ΔΔ, CLA mix .box-solid.-.box-solid., 10,12-18:2, .smallcircle.-.smallcircle., 9,11-18:2, *-*, 13-HODE, .gradient.-.gradient., 9-HODE.

Assay [2] has as its system 12-lipoxygenase (human platelet 12-HETE formation). The assay is described as follows: Human platelet 12-HETE formation from [14C]-arachidonic acid, TLC. Conditions: CLA mix 3 and 10 μM; 9,11-18:2 30 and 60 μM; 10,12-18:2 3 and 10 μM; with ionophore A23187. The assay is classed as cell-based. As to the method:
as §1, with “Ten minutes after the addition of arachidonic acid, the reaction was terminated with 10% formic acid and the products extracted with chloroform-methanol.” left out, “software). To obtain the results shown in FIG. 2, the human platelets were pretreated with the various concentrations of CLA isomers followed by the addition of calcium ionophore A23187 and [^14 C]-arachidonic acid. […]” for “software).”

[3] abbreviates: human platelets, exogenous arachidonic acid, calcium ionophore A23187, mean ± S.E.M., 6-11 donors.

As for `CCCCC/C=C\C=C\CCCCCCCCC(=O)O` [10,12-18:2, 10,12-octadecadienoic acid], in assay [1], the “TXB2 formation (FIG. 2)” value is “TXB2 was inhibited”; the “inhibitory effectiveness on platelet TXB2 formation, CLA mix and pure isomers compared” value is reported as “approximately the same”. In addition, in assay [1] (setting [3]), the IC50 was 13 ± 4.1 µM. For the same molecule, in assay [2], the “12-HETE production (FIG. 2)” value is given as “no effect on the 12-HETE production”.
`CCCCCCCC/C=C\CCCCCCCC(=O)O` [Oleic acid]: the IC50 in assay [1] (Homo sapiens) is above 60 µM.
As for `CCCCC/C=C\C=C\C(O)CCCCCCCC(=O)O` (stereo not drawn) [9-HODE], in assay [1] (9-HODE vs 10,12-18:2), the “decrease of inhibitory effectiveness relative to 10,12-18:2” value is “more than two” and the “potency as thromboxane inhibitor relative to non-hydroxylated parent” value is on record as “less potent than the corresponding non-hydroxylated parent 10,12-18:2”. Also, in assay [1] (setting [3]), the IC50 stood at 34 ± 6.5 µM.
Regarding `CCCCCC/C=C/C=C\CCCCCCCC(=O)O` [9,11-18:2, 9,11-octadecadienoic acid], in assay [1], the “TXB2 formation (FIG. 2)” value is reported as “TXB2 was inhibited”; the “inhibitory effectiveness on platelet TXB2 formation, CLA mix and pure isomers compared” value is “approximately the same”. The IC50 in assay [1] (setting [3]) came to 16 ± 1.8 µM. In addition, in assay [2], the “12-HETE production (FIG. 2)” value is listed as “no effect on the 12-HETE production”.
In the case of `CCCCC[C@H](O)/C=C/C=C\CCCCCCCC(=O)O` [13-HODE], the “potency as thromboxane inhibitor relative to non-hydroxylated parent” value in assay [1] (9-HODE vs 10,12-18:2) is listed as “more potent as a thromboxane inhibitor than the parent 9,11-18:2”. Besides, in assay [1] (13-HODE vs 9,11 isomer), the “enhancement of inhibitory potency relative to the non-hydroxylated analog” value is recorded as “about five”. Moreover, in assay [1] (setting [3]), the IC50 was found to be 3 ± 0.7 µM.
